Test results taken from patent US20250263496A1, “Neutrophil-Activating Therapy for the Treatment of Cancer” (The Board of Trustees of the Leland Stanford Junior …, priority 2024, published 2025).

Assays:
neutrophils = experiment: Flow cytometry of neutrophils in B16 tumors and blood; format: in vivo, mouse; conditions: agent given prior to neutrophil-activating therapy
Experimental: Tumors were digested with collagenase IV and DNase I as described above. Following digestion, tissue was mashed through a […] cell strainer (Falcon), washed, red blood cells were lysed with ACK buffer for 1 minute, and cells were washed again prior to antibody staining. Blood was harvested into PBS plus 20 mM EDTA by cardiac puncture or retro-orbital bleed, lysed in ACK buffer for 5 minutes, and washed prior to antibody staining. Bone marrow was harvested by grinding the femur and tibia in a mortar and pestle and mashing through a […] strainer (Falcon), or by flushing femurs with a syringe and needle, then lysed in ACK buffer for 5 minutes and washed prior to antibody staining. Spleens were harvested by mashing through a […] cell strainer (Falcon), then lysed in ACK buffer for 5 minutes and washed prior to antibody staining.
Live cells were stained with antibodies on ice for 20 minutes in FACS buffer (HBSS 1% BSA 5 mM EDTA) with Brilliant Stain Buffer Plus (BD). Following staining, cells were washed twice in FACS buffer and resuspended in 1 μg/ml DAPI plus AccuCount Fluorescent Particles (Spherotech) for absolute count determination. In some experiments, live cells were stained with Live/Dead Fixable Blue Stain (Invitrogen) in HBSS on ice for 20 minutes prior to antibody staining, and DAPI was not used. […]

B16 cells = experiment: Mouse in vitro cytotoxicity (EuTDA), B16 cells co-cultured with neutrophils; format: cell-based; conditions: neutrophils from treated tumors stimulated with neutrophil-activating therapy
Experimental: B16 tumors were treated by intratumoral injection of TNF+anti-CD40+anti-gp75 and harvested 12 hours post-treatment. Tumors were dissected away from any surrounding fat, minced, and digested in 5 mg/ml collagenase IV (Worthington) plus 0.1 mg/ml DNase I (Sigma) with continuous mixing by magnetic stir bars for 20 minutes at 37° C. in RPMI-1640 (Gibco) with 2% FBS. Following digestion, tissue was mashed through a […] cell strainer (Falcon) and washed. For some studies, bone marrow was harvested by grinding bones from tumor-naive untreated mice in a mortar and pestle and mashing through a […] strainer (Falcon). Neutrophils were isolated from tumor and bone marrow samples with the MojoSort Mouse Ly6G Selection Kit (BioLegend), according to the manufacturer's instructions, and used in the cytotoxicity assay.
Cytotoxicity assays were conducted using the EuTDA assay from the DELFIA TRF cytotoxicity kit (PerkinElmer) according to the manufacturer's instructions. Briefly, B16 cells were labeled for 10 minutes with BATDA, and 5×10^3 labeled cells were added per well to a 96 well V-bottom plate in RPMI-1640. Neutrophils were added at a ratio of 10:1 unless otherwise stated. All co-cultures were conducted in the presence of TNF (10 ng/ml), anti-CD40 (1 μg/ml), anti-gp75 (1 μg/ml), and 10% active mouse C57BL/6 complement serum (Innovative Research), except where indicated otherwise. Mouse C57BL/6 complement serum was heat-inactivated for 40 minutes at 57° C. where inactivation is specified. In some experiments, mouse IgG2a isotype control (1 μg/ml, isotype control for anti-gp75, clone C1.18.4, Bio X Cell), anti-mouse CD16/CD32 (10 μg/ml, clone 2.4G2, Bio X Cell), recombinant mouse C5a (50 nM, R&D Systems), anti-C5a (25 μg/ml, clone 295108, R&D Systems), rat IgG2a isotype control (25 μg/ml, isotype control for anti-C5a, clone 2A3, Bio X Cell), anti-C5AR1 (5 μg/ml, clone 20/70, BioLegend), rat IgG2b isotype control (5 μg/ml, isotype control for anti-C5AR1, clone LTF-2, Bio X Cell), SC57461A (10 μM, Cayman Chemical), CP-105696 (1 μM, Sigma), topiroxostat (10 μM, MedChem Express), or DMSO (vehicle for SC57461A, CP-105696, and topiroxostat) were added to the wells with the B16 and neutrophils. After 4 hours of co-culture at 37° C., supernatant was taken from the wells, Europium solution was added, and TDA released from lysed B16 cells was detected by […] on a Victor X4 fluorescence microplate reader (PerkinElmer). Percent maximal lysis was determined by calculating the specific release of TDA using the formula: (experimental release−spontaneous release)/(maximum release −spontaneous release), where spontaneous release was determined by wells containing no neutrophils and maximum release was determined by wells with lysis buffer added.
For trogocytosis studies investigating transfer of tumor-binding antibody, anti-gp75 labeled with AF647 (clone TA99, Novus Biologicals) was used in place of unlabeled anti-gp75. For studies investigating transfer of B16 cell membrane, DiD′ Solid (ThermoFisher Scientific) was reconstituted in DMSO at 10 mg/ml and diluted to a working solution of 5 μg/ml in serum-free DMEM. B16 cells were labeled in this solution for 20 minutes at 37° C. at 1×10^6 cells/ml. Labeled B16 was washed 3 times in warm media before being added to the co-culture wells with the neutrophils. Following co-culture, flow cytometry was used to identify DiD signal in neutrophils.

N#Cc1cc(-c2n[nH]c(-c3ccncc3)n2)ccn1 [topiroxostat] was tested, and the “effect of agent on treatment-induced neutrophil tumor infiltration” value (neutrophils) was “did not prevent neutrophil infiltration” and the “effect of agent on ex vivo killing of tumor cells by neutrophils” value (B16 cells) was “inhibited ex vivo tumor cell killing”.
